Laboratory results reported in patent publication US20260103730A1, “METHOD FOR RELEASING VIRAL VECTORS” (PCI Biotech AS, priority 2022, published 2026).

Tests used:
[1] = system: Jurkat cells; assay: MTS assay of metabolic activity/viability after TPCS2a and blue light; format: cell-based; conditions: 48 hours incubation
Protocol: (§1) Jurkat cells were incubated with 0.1 ug/mL or 1 ug/mL fimaporfin (TPCS2a, tetraphenyl chlorin disulfonate) for 10 minutes in complete RPMI 1640 medium. Following irradiation, the cells were incubated for 48 hours at 37° C. and 5% CO2, after which several analyses of cell health were performed.
(§2) Blue light irradiation/illumination was performed using LumiSource according to the manufacturer's protocol (PCI Biotech)
MTS metabolism was performed as a measure of metabolic activity and performed according the manufacturer's protocol (Promega).

[2] = system: Jurkat cells; assay: Cell counting (Coulter Counter) as measure of cell growth; format: cell-based; conditions: higher dose (1 ug/mL) vs 0.1 ug/mL at corresponding irradiation times, 48 hours after irradiation
Protocol: as §1, §2
Cell counting was performed as a measure of cell growth using a Coulter Counter by Beckman Coulter according to the manufacturer's protocol. Counting was performed 48 hours after irradiation.

[3] = system: Jurkat cells; assay: Hoechst 33258 entry by flow cytometry as measure of cell death / pore formation; format: cell-based
Protocol: as §1, §2
Entry of Hoechst 33258 (Thermo Fisher Scientific) into cells was performed as a measure of cell death. When Hoechst 33258 enters cells, it binds to double-stranded DNA generating a strong fluorescent signal. Entry of the stain into the cells requires the presence of pores in the plasma membrane and is a late-stage measure of cell health, i.e. cell death. Hoechst 33258 staining and flow cytometry was performed according to the manufacturer's protocol (Thermo Fisher Scientific).

[4] = system: HEK293 cells; assay: LDH release assay (leakage of cytosolic material); format: cell-based; conditions: 10 min, assessed after 2 hours
Protocol: HEK293 cells were incubated with either 0.5 μg/mL TPCS2a or 0.5% Tween 20 in serum-free DMEM. Alternatively, HEK293 cells were incubated with 50 μg/mL TPCS2a in 10% serum supplemented DMEM for 10 minutes. The cells were subsequently irradiated with blue light for 5 minutes or received no irradiation. Blue light irradiation/illumination was performed using LumiSource according to the manufacturer's protocol (PCI Biotech). The negative control (Neg. Ctrl) was either serum-free DMEM or 10% Fetal Bovine Serum (FBS) supplemented DMEM containing the TPCS2a solvent to control for the effect of solvents on LDH leakage. Background absorbance values of the LDH assay was assessed using DMEM with increasing concentrations of FBS at 1%, 5% and 10%.
LDH release was performed as a measure of cell lysis and release of cytosolic material using CyQUANT LDH Cytotoxicity Assay (Thermo Fisher Scientific) according to manufacturer's protocol. Cells were seeded in 48 well plates one day prior to treatments in 400 μL. The following day, treatments were given for 10 minutes at 37° C. 5% CO2, prior to 5 minutes illumination. Plates were subsequently incubated for 2 hours in an incubator (37° C. 5% CO2), then centrifuged for 5 minutes at 400×g, after which 50 μL supernatant from each sample was transferred to a 96 well plate for absorbance measurements according to kit instructions. 490 nm absorbance reflects LDH and 680 nm reflects absorbance background from the instrument. 490 nm absorbance minus 680 nm absorbance is directly proportional to the amount of LDH released into the medium.

[5] = system: HEK293 cells; assay: Cellular morphology after photochemical treatment (Nomarski/fluorescence microscopy); format: cell-based; conditions: HEK293, 5 μg/mL 10 min
Protocol: HEK293 cells were incubated with 5 μg/mL TPCS2a complete DMEM for 10 minutes, followed by irradiation with blue light for 5 minutes. Blue light irradiation/illumination was performed using LumiSource according to the manufacturer's protocol (PCI Biotech). Cells were imaged by light (Nomarski) and fluorescence microscopy prior to illumination and 2 hours after illumination. Imaging was performed as described in Example 2.

[6] = system: HEK293 cells; assay: DNA leakage by Hoechst 33258 staining and microscopy, photochemical vs detergent lysis; format: cell-based; conditions: HEK293, TPCS2a 5 μg/mL or Tween 20 0.5%, 10 min, irradiation 5 minutes, 2 hours after
Protocol: (§3) HEK293 cells were incubated with 5 μg/mL TPCS2a or 0.5% Tween 20 in complete DMEM for 10 minutes followed by irradiation for 5 minutes. Blue light irradiation/illumination was performed using LumiSource according to the manufacturer's protocol (PCI Biotech). A negative control of complete DMEM containing the TPCS2a solvent was used to control for solvent effects on cell morphology and lysis.
Hoechst 33258 stain was added to samples 2 minutes prior to imaging. Hoechst 33258 staining was performed according to the manufacturer's protocol (Thermo Fisher Scientific). The cells were imaged by light (Nomarski) and fluorescence microscopy prior to irradiation and 2 hours after irradiation. Imaging was performed as described in Example 2. Changes to cellular morphology were analysed visually.

[7] = system: HEK293T cells; assay: Release of AAV2 viral vectors from producer cells (ddPCR of DNase-resistant vg in supernatant); format: cell-based; conditions: adherent HEK293T, TPCS2a 5 μg/mL 10 min, blue light 5 minutes, supernatant 2 hours later
Protocol: 75-80% confluent HEK293T cells were triple transfected with Adeno-associated virus serotype 2 (AAV)-encoding plasmids (pHelper, AAV2 RepCap, and pscAAV-GFP plasmids) using polyethylenimine (PEI) in 12 well plates, resulting in AAV2 production. For each transfection, plasmids and PEI were added to complete DMEM to a total volume of 640 μL, followed by vortexing for 10 seconds and 15 minutes incubation at room temperature. Medium was removed from the HEK293T cells in 12 well plates, and replaced by the DMEM-plasmid-PEI mixture. Cells were incubated for three days at 37° C. and 5% CO2. Three days after transfection, cells were subjected to treatments (as described below) for 10 minutes in complete DMEM.
Treatments were: • a) Untransfected cells, no further treatment. • b) Transfected cells. Received photosensitiser solvent but no photosensitiser (to control for solvent effect on cell lysis). • c) Transfected cells. Incubated with 5 μg/mL TPCS2a (Fimaporfin) for 10 minutes. […]
Supernatants were harvested 2 hours later and cell debris (if any) was eliminated by centrifugation. DNase-resistant viral genome (vg) from all samples was quantified by digital droplet PCR amplification (Bio-Rad QX600) of DNase-resistant (i.e. viral capsid-encapsulated) DNA using primers targeting inverted terminal repeats. Viral vector yield was expressed as “vg/mL” (AAV vector genomes per millilitre).

[8] = system: HEK293T suspension cells; assay: Photochemical lysis of suspension cells studied by microscopy; format: cell-based; conditions: 5 μg/mL 10 min + blue light 5 minutes, 2 hours after
Protocol: HEK293T suspension cells were treated with 5 μg/mL TPCS2a (fimaporfin) or fimaporfin solvent without photosensitiser (“Neg. Ctrl”) in complete DMEM for 10 minutes, followed by blue light illumination for 5 minutes (as described in Example 6). Hoechst 33258 was added to samples 2 minutes prior to imaging. Hoechst 33258 DNA stain is not readily cell penetrable, and therefore stains free DNA or DNA in cells with plasma membrane pores.
Cells were washed in PBS/1% FBS prior to imaging to remove unbound fimaporfin. Cells were imaged by light (Nomarski) microscopy and fimaporfin and Hoechst fluorescence by fluorescence microscopy after 10 minutes (i.e. prior to illumination) and 2 hours after illumination. Imaging was conducted as set out in Example 2.

[9] = system: HEK293T cells; assay: Genomic DNA leakage into supernatant by ddPCR (albumin primers); format: cell-based, human; conditions: TPCS2a 5 μg/mL 10 min, irradiation 5 minutes, 2 hours incubation
Protocol: as §3, with “75-80% confluent HEK293T” for “HEK293”, “minutes (where indicated).” for “minutes.”, “cell” for “cell morphology and”
Following irradiation, the cells were incubated for 2 hours at 37° C. and 5% CO2, after which supernatants were collected. Cell debris (if any) was eliminated by centrifugation. Genomic DNA from all samples was quantified by ddPCR (Bio-Rad QX600) using primers targeting human albumin DNA.
Albumin DNA values were normalised to the negative control.

For “tetraphenyl chlorin disulfonate [TPCS2a]”, the “cell viability (MTS absorbance)” value ([1]; TPCS2a 1 μg/ml 10 min, 4-5 minutes irradiation) was “total loss of viability”, the “cell viability (MTS absorbance)” value ([1]; TPCS2a 0.1 or 1 ug/mL 10 min, blue light 2-5 minutes) was “reductions in viability” and the “cell density (cell counting)” value [2] was “reduced cell density”. The “cell death (Hoechst 33258 staining)” value ([3]; TPCS2a 0.1 μg/ml 10 min, various irradiation times) was “some cell death but only at longer irradiation times”, the “cell death (Hoechst 33258 staining)” value ([3]; TPCS2a 1 μg/ml 10 min, after 2 minutes of irradiation) was “significant cell death” and the LDH release ([4]; HEK293, 10% FBS DMEM, TPCS2a 50 μg/mL, blue light 5 minutes) was “increased significantly”. For the same substance, the LDH release ([4]; HEK293, 10% FBS DMEM, TPCS2a 50 μg/mL, no irradiation) was “comparable levels of LDH release to HEK293 cells treated with a negative control”, the LDH release ([4]; HEK293, serum-free DMEM, TPCS2a 0.5 μg/mL or Tween 20 0.5%, blue light 5 minutes) was “increased significantly” and the LDH release ([4]; HEK293, serum-free DMEM, TPCS2a 0.5 μg/mL or Tween 20 0.5%, no irradiation) was “comparable levels of LDH release to HEK293 cells treated with a negative control”. For the same substance, the cellular morphology ([5]; absence of irradiation) was “do not exhibit changes to their cellular morphology”, the cellular morphology ([5]; blue light 5 minutes, 2 hours after illumination) was “dramatically altered cellular morphology and had shifted to a lytic phenotype” and the “DNA leakage (Hoechst 33258 microscopy)” value [6] was “DNA stays within the boundaries of the cell corpse”. The “release of AAV2 viral vectors into supernatant” value [7] was “releases non-enveloped viral vectors from producer cells”, the “DNA retention (Hoechst 33258 microscopy)” value [8] was “DNA is retained within the boundaries of the lysed cells” and the plasma membrane disruption [8] was “opens up the plasma membrane”. The “genomic DNA leakage into supernatant (ddPCR)” value [9] was “does not cause the leakage of genomic DNA”.
